Literature values, collected in patent publication US20050084550A1, “Weight reduction and maintenance method for animals” (International Flora Technologies, priority 2001, published 2005).

Assays:
food intake in chickens = details: appetite suppressant
food intake in rats = details: appetite suppressant
food intake in mice = details: appetite suppressant

CO[C@H]1[C@@H](OC)C[C@@H](O[C@@H]2O[C@H](CO)[C@@H](O)[C@H](O)[C@H]2O)/C(=C\C#N)[C@@H]1O [simmondsin]
food intake (food intake in chickens): reduces food intake
food intake (food intake in rats): reduces food intake
food intake (food intake in mice): reduces food intake
solubility in hexane (hexane): not soluble
solubility in jojoba oil (jojoba oil): not soluble
